Results from the NIST ThermoML archive (doi:10.1016/j.jct.2008.05.014).

Assay: xn = mol fraction of the nth substance listed
Details: Liquid; for speed of sound: Pulse-echo method

CCCCCCCCCCCC [dodecane] + CCCCCCC
Details | mass density [kg/m3] | speed of sound [m/s]
303.17 K, 101 kPa, x2 = 0.2001 | – | 1238.5
308.11 K, 30390 kPa, x2 = 0.9391 | – | 1298.5
308.11 K, 30390 kPa, x2 = 0.97 | – | 1294.9
308.11 K, 45590 kPa, x2 = 0.9391 | – | 1376.1
308.11 K, 45590 kPa, x2 = 0.97 | – | 1373
308.11 K, 60790 kPa, x2 = 0.9391 | – | 1445.9
308.11 K, 60790 kPa, x2 = 0.97 | – | 1443.2
308.11 K, 75990 kPa, x2 = 0.9391 | – | 1509.5
308.11 K, 75990 kPa, x2 = 0.97 | – | 1507.2
308.11 K, 91180 kPa, x2 = 0.9391 | – | 1568
308.11 K, 101320 kPa, x2 = 0.4999 | – | 1649.5
308.11 K, 101320 kPa, x2 = 0.9391 | – | 1605.3
308.11 K, 101320 kPa, x2 = 0.97 | – | 1603.3
308.12 K, 101 kPa, x2 = 0 | – | 1240.2
308.12 K, 101 kPa, x2 = 0.6 | – | 1164.6
308.12 K, 101 kPa, x2 = 0.8995 | – | 1109.6
308.12 K, 15200 kPa, x2 = 0.9391 | – | 1209.5
308.12 K, 15200 kPa, x2 = 0.97 | – | 1205.4
308.12 K, 45590 kPa, x2 = 0.1014 | – | 1468.2
308.12 K, 45590 kPa, x2 = 0.4999 | – | 1432.7
308.12 K, 60790 kPa, x2 = 0.1014 | – | 1531
308.12 K, 75990 kPa, x2 = 0.1014 | – | 1589.4
308.12 K, 91180 kPa, x2 = 0.1014 | – | 1643.8
308.12 K, 91180 kPa, x2 = 0.4999 | – | 1614.6
308.12 K, 91180 kPa, x2 = 0.97 | – | 1565.8
308.12 K, 101320 kPa, x2 = 0.1014 | – | 1677.8
308.13 K, 101 kPa, x2 = 0.3002 | – | 1207.1
308.13 K, 101 kPa, x2 = 0.7002 | – | 1147.7
308.13 K, 101 kPa, x2 = 0.8 | – | 1129.6
308.13 K, 15200 kPa, x2 = 0.1014 | – | 1321.5
308.13 K, 15200 kPa, x2 = 0.4999 | – | 1278.8
308.13 K, 30390 kPa, x2 = 0.1014 | – | 1398.8
308.13 K, 30390 kPa, x2 = 0.3007 | – | 1379.7
308.13 K, 30390 kPa, x2 = 0.4999 | – | 1360.2
308.13 K, 30390 kPa, x2 = 0.5003 | – | 1360.2
308.13 K, 30390 kPa, x2 = 0.7007 | – | 1334.7
308.13 K, 45590 kPa, x2 = 0.3007 | – | 1450.6
308.13 K, 45590 kPa, x2 = 0.7007 | – | 1409.4
308.13 K, 60790 kPa, x2 = 0.4999 | – | 1498.1
308.13 K, 60790 kPa, x2 = 0.5003 | – | 1498.2
308.13 K, 60790 kPa, x2 = 0.7007 | – | 1476.6
308.13 K, 75990 kPa, x2 = 0 | – | 1596.8
308.13 K, 75990 kPa, x2 = 0.4999 | – | 1558.1
308.13 K, 75990 kPa, x2 = 0.5003 | – | 1558.2
308.13 K, 75990 kPa, x2 = 0.7007 | – | 1537.9
308.13 K, 91180 kPa, x2 = 0 | – | 1650.9
308.13 K, 91180 kPa, x2 = 0.3007 | – | 1629.5
308.13 K, 91180 kPa, x2 = 0.5003 | – | 1614.7
308.13 K, 91180 kPa, x2 = 0.7007 | – | 1595.3
308.13 K, 101320 kPa, x2 = 0.3007 | – | 1664.1
308.13 K, 101320 kPa, x2 = 0.5003 | – | 1649.8
308.13 K, 101320 kPa, x2 = 0.7007 | – | 1631.3
308.14 K, 101 kPa, x2 = 0.3996 | – | 1194.1
308.14 K, 15200 kPa, x2 = 0 | – | 1331
308.14 K, 15200 kPa, x2 = 0.3007 | – | 1300.4
308.14 K, 15200 kPa, x2 = 0.5003 | – | 1278.7
308.14 K, 15200 kPa, x2 = 0.7007 | – | 1250.1
308.14 K, 30390 kPa, x2 = 0 | – | 1407.6
308.14 K, 45590 kPa, x2 = 0 | – | 1476.3
308.14 K, 45590 kPa, x2 = 0.5003 | – | 1432.6
308.14 K, 60790 kPa, x2 = 0 | – | 1538.6
308.14 K, 60790 kPa, x2 = 0.3007 | – | 1515
308.14 K, 75990 kPa, x2 = 0.3007 | – | 1574.3
308.15 K, 101 kPa, x2 = 0 | 738.031 | –
308.15 K, 101 kPa, x2 = 0.0991 | 733.816 | –
308.15 K, 101 kPa, x2 = 0.1007 | – | 1230
308.15 K, 101 kPa, x2 = 0.2001 | – | 1219
308.15 K, 101 kPa, x2 = 0.2008 | 729.111 | –
308.15 K, 101 kPa, x2 = 0.2998 | 724.073 | –
308.15 K, 101 kPa, x2 = 0.3996 | 718.583 | –
308.15 K, 101 kPa, x2 = 0.5 | 712.522 | –
308.15 K, 101 kPa, x2 = 0.5002 | – | 1179.8
308.15 K, 101 kPa, x2 = 0.6 | 705.898 | –
308.15 K, 101 kPa, x2 = 0.7005 | 698.575 | –
308.15 K, 101 kPa, x2 = 0.7995 | 690.497 | –
308.15 K, 101 kPa, x2 = 0.8486 | 686.148 | –
308.15 K, 101 kPa, x2 = 0.8988 | 681.426 | –
308.15 K, 101 kPa, x2 = 0.9498 | 676.348 | –
308.15 K, 15200 kPa, x2 = 0.8496 | – | 1227.4
308.15 K, 30390 kPa, x2 = 0.8496 | – | 1314.4
308.15 K, 45590 kPa, x2 = 0.8496 | – | 1390.8
308.15 K, 60790 kPa, x2 = 0.8496 | – | 1459.7
308.15 K, 75990 kPa, x2 = 0.8496 | – | 1522.3
308.15 K, 91180 kPa, x2 = 0.8496 | – | 1580.4
308.15 K, 101320 kPa, x2 = 0.8496 | – | 1617.2
313.08 K, 15200 kPa, x2 = 0.9391 | – | 1191.3
313.08 K, 30390 kPa, x2 = 0.9391 | – | 1281.8
313.08 K, 45590 kPa, x2 = 0.9391 | – | 1360.6
313.08 K, 60790 kPa, x2 = 0.9391 | – | 1431.4
313.08 K, 75990 kPa, x2 = 0.9391 | – | 1495.6
313.08 K, 91180 kPa, x2 = 0.9391 | – | 1554.5
313.08 K, 101320 kPa, x2 = 0.4999 | – | 1636.7
313.08 K, 101320 kPa, x2 = 0.9391 | – | 1592.1
313.09 K, 30390 kPa, x2 = 0.97 | – | 1278.1
313.09 K, 45590 kPa, x2 = 0.97 | – | 1357.5
313.09 K, 60790 kPa, x2 = 0.4999 | – | 1483.8
313.09 K, 60790 kPa, x2 = 0.97 | – | 1428.5
313.09 K, 75990 kPa, x2 = 0.4999 | – | 1544.2
313.09 K, 75990 kPa, x2 = 0.97 | – | 1493.1
313.09 K, 91180 kPa, x2 = 0.4999 | – | 1601.2
313.09 K, 91180 kPa, x2 = 0.97 | – | 1552.3
313.09 K, 101320 kPa, x2 = 0.97 | – | 1589.9
313.1 K, 101 kPa, x2 = 0 | – | 1221
313.1 K, 101 kPa, x2 = 0.6 | – | 1144.4
313.1 K, 101 kPa, x2 = 0.8995 | – | 1088.5
313.1 K, 15200 kPa, x2 = 0.4999 | – | 1261.2
313.1 K, 15200 kPa, x2 = 0.97 | – | 1186.9
313.1 K, 30390 kPa, x2 = 0.4999 | – | 1344.1
313.1 K, 45590 kPa, x2 = 0.4999 | – | 1417.6
313.1 K, 60790 kPa, x2 = 0.7007 | – | 1462.1
313.1 K, 91180 kPa, x2 = 0.7007 | – | 1581.9
313.1 K, 101320 kPa, x2 = 0.1014 | – | 1665
313.11 K, 101 kPa, x2 = 0.3002 | – | 1187.6
313.11 K, 101 kPa, x2 = 0.3996 | – | 1174.4
313.11 K, 101 kPa, x2 = 0.7002 | – | 1127.3
313.11 K, 15200 kPa, x2 = 0.1014 | – | 1304
313.11 K, 15200 kPa, x2 = 0.3007 | – | 1282.9
313.11 K, 15200 kPa, x2 = 0.7007 | – | 1232.2
313.11 K, 30390 kPa, x2 = 0.1014 | – | 1382.7
313.11 K, 30390 kPa, x2 = 0.3007 | – | 1363.6
313.11 K, 30390 kPa, x2 = 0.5003 | – | 1344.2
313.11 K, 30390 kPa, x2 = 0.7007 | – | 1318.2
313.11 K, 45590 kPa, x2 = 0.1014 | – | 1453
313.11 K, 45590 kPa, x2 = 0.5003 | – | 1417.5
313.11 K, 45590 kPa, x2 = 0.7007 | – | 1393.8
313.11 K, 60790 kPa, x2 = 0.1014 | – | 1516.7
313.11 K, 60790 kPa, x2 = 0.5003 | – | 1483.9
